This series can be described thus: LogP measurement by HPLC on reversed phase columns (EEC directive 79/831 Annex V.A8). The following applies: method [a]: LC-UV, acidic range, 0.1% formic acid in water and acetonitrile as eluent (linear gradient 10% to 95% acetonitrile). In kind it is physicochemical. The procedure:
Measurement of LogP values was performed according to EEC directive 79/831 Annex V.A8 by HPLC (High Performance Liquid Chromatography) on reversed phase columns with the following methods: • ^[a] LogP value is determined by measurement of LC-UV, in an acidic range, with 0.1% formic acid in water and acetonitrile as eluent (linear gradient from 10% acetonitrile to 95% acetonitrile). • ^[b] LogP value is determined by measurement of LC-UV, in a neutral range, with 0.001 molar ammonium acetate solution in water and acetonitrile as eluent (linear gradient from 10% acetonitrile to 95% acetonitrile). • ^[c] LogP value is determined by measurement of LC-UV, in an acidic range, with 0.1% phosphoric acid and acetonitrile as eluent (linear gradient from 10% acetonitrile to 95% acetonitrile).
If more than one LogP value is available within the same method, all the values are given and separated by "+". […]

What is called chromatographic logP is a lipophilicity value derived from retention on a column.

In turn, `CCN(C)C=Nc1cc(C)c(S(=O)(=O)c2ccccc2)cc1C` [Example I-004, N'-[4-(benzenesulfonyl)-2,5-dimethylphenyl]-N-ethyl-N-methylmethanimidamide] returned a chromatographic logP (reversed phase HPLC columns) of 1.

`CCN(C)C=Nc1cc(C)c([S+]([O-])c2ccccc2Cl)cc1C` (stereo not drawn) [Example I-010, N'-[4-(2-chlorophenyl)sulfinyl-2,5-dimethylphenyl]-N-ethyl-N-methylmethanimidamide]: the chromatographic logP (reversed phase HPLC columns) was found to be 0.97. This chromatographic logP and that of the compound before are within 0.2 log units of each other. Regarding `CCN(C)C=Nc1cc(C)c([S+]([O-])c2ccccc2F)cc1C` (stereo not drawn) [Example I-011, N-ethyl-N'-[4-(2-fluorophenyl)sul6nyl-2,5-dimethylphenyl]-N-methylmethanimidamide], the chromatographic logP came out at 0.78.

In the case of `CCN(C)C=Nc1cc(C)c([S+]([O-])c2ccccc2C)cc1Cl` (stereo not drawn) [Example I-012, N'-[2-chloro-5-methyl-4-(2-methylphenyl)sulfinylphenyl]-N-ethyl-N-methylmethanimidamide], where the note is “reversed phase HPLC columns”, the chromatographic logP was 0.97. As for `CCN(C)C=Nc1cc(C)c([S+]([O-])c2ccccc2Cl)cc1Cl` (stereo not drawn) [Example I-013, N'-[2-chloro-4-(2-chlorophenyl)sulfinyl-5-methylphenyl]-N-ethyl-N-methylmethanimidamide], the chromatographic logP (reversed phase HPLC columns) was 1.15. This chromatographic logP and that of the compound before are within 0.2 log units of each other. Still for that read-out and setting: for `CCN(C)C=Nc1cc(C)c([S+]([O-])c2ccccc2F)cc1Cl` (stereo not drawn) [Example I-014, N'-[2-chloro-4-(2-fluorophenyl)sulfinyl-5-methylphenyl]-N-ethyl-N-methylmethanimidamide] the value was 0.94; for `CCN(C)C=Nc1cc(C)c(S(=O)(=O)c2ccccc2C)cc1Cl` [Example I-015, N'-[2-chloro-5-methyl-4-(2-methylphenyl)sulfonylphenyl]-N-ethyl-N-methylmethanimidamide], 1.69. Still for that read-out and setting: then `CCN(C)C=Nc1cc(C)c(S(=O)(=O)c2ccccc2C)cc1C` [Example I-016, N'-[2,5-dimethyl-4-(2-methylphenyl)sulfonylphenyl]-N-ethyl-N-methylmethanimidamide], with 1.18; and `CCN(C)C=Nc1cc(C)c(S(=O)(=O)c2ccccc2F)cc1C` [Example I-017, N-ethyl-N'-[4-(2-fluorophenyl)sulfonyl-2,5-dimethylphenyl]-N-methylmethanimidamide], with 1.07; and `CCN(C)C=Nc1cc(C)c(S(=O)(=O)c2ccccc2Cl)cc1Cl` [Example I-018, N'-[2-chloro-4-(2-chlorophenyl)sulfonyl-5-methylphenyl]-N-ethyl-N-methylmethanimidamide], with 2.02. Same read-out and setting: then `CCN(C)C=Nc1cc(C)c(S(=O)(=O)c2ccccc2F)cc1Cl` [Example I-019, N'-[2-chloro-4-(2-fluorophenyl)sulfonyl-5-methylphenyl]-N-ethyl-N-methylmethanimidamide], with 1.84; and `CCN(C)C=Nc1cc(F)c(S(=O)(=O)c2ccccc2)cc1C` [Example I-027, N'-[4-(benzenesulfonyl)-5-fluoro-2-methylphenyl]-N-ethyl-N-methylmethanimidamide], with 1.18; and `CCN(C)C=Nc1cc(F)c(S(=O)(=O)c2ccccc2C)cc1C` [Example I-028, N-ethyl-N'-[5-fluoro-2-methyl-4-(2-methylphenyl)sulfonylphenyl]-N-methylmethanimidamide], with 1.42.

Compound `CCN(C)C=Nc1cc(F)c(S(=O)(=O)c2ccccc2Cl)cc1C` [Example I-029, N'-[4-(2-chlorophenyl)sulfonyl-5-fluoro-2-methylphenyl]-N-ethyl-N-methylmethanimidamide] yielded a chromatographic logP (reversed phase HPLC columns) of 1.45. The same measure, in the same setting: then `CCN(C)C=Nc1cc(Cl)c([S+]([O-])c2ccccc2F)cc1C` (stereo not drawn) [Example I-030, N'-[5-chloro-4-(2-fluorophenyl)sulfinyl-2-methylphenyl]-N-ethyl-N-methylmethanimidamide], with 1.03; and `CCN(C)C=Nc1cc(F)c([S+]([O-])c2ccccc2)cc1C` (stereo not drawn) [Example I-031, N'-[4-(benzenesulfinyl)-5-fluoro-2-methylphenyl]-N-ethyl-N-methylmethanimidamide], with 0.78. Still for that read-out and setting: for `CCN(C)C=Nc1cc(F)c([S+]([O-])c2ccccc2C)cc1C` (stereo not drawn) [Example I-032, N-ethyl-N'-[5-fluoro-2-methyl-4-(2-methylphenyl)sulfinylphenyl]-N-methylmethanimidamide] the value was 1. The same measure, in the same setting: for `CCN(C)C=Nc1cc(F)c([S+]([O-])c2ccccc2Cl)cc1C` (stereo not drawn) [Example I-033, N'-[4-(2-chlorophenyl)sulfinyl-5-fluoro-2-methylphenyl]-N-ethyl-N-methylmethanimidamide] the value was 1.12; for `CCN(C)C=Nc1cc(Cl)c(S(=O)(=O)c2ccccc2C)cc1C` [Example I-034, N'-[5-chloro-2-methyl-4-(2-methylphenyl)sulfonylphenyl]-N-ethyl-N-methylmethanimidamide], 1.5; for `CCN(C)C=Nc1cc(Br)c([S+]([O-])c2ccccc2C)cc1C` (stereo not drawn) [Example I-035, N'-[5-bromo-2-methyl-4-(2-methylphenyl)sulfinylphenyl]-N-ethyl-N-methylmethanimidamide], 1.12. Consider `CCN(C)C=Nc1cc(Br)c([S+]([O-])c2ccccc2Cl)cc1C` (stereo not drawn) [Example I-036, N'-[5-bromo-4-(2-chlorophenyl)sulfinyl-2-methylphenyl]-N-ethyl-N-methylmethanimidamide], for which the chromatographic logP (reversed phase HPLC columns) was 1.26. On the same count and under the same terms, for `CCN(C)C=Nc1cc(Cl)c([S+]([O-])c2ccccc2C)cc1C` (stereo not drawn) [Example I-037, N'-[5-chloro-2-methyl-4-(2-methylphenyl)sulfinylphenyl]-N-ethyl-N-methylmethanimidamide] the value was 1.1; for `CCN(C)C=Nc1cc(Br)c([S+]([O-])c2ccccc2)cc1C` (stereo not drawn) [Example I-038, N'-[4-(benzenesulfinyl)-5-bromo-2-methylphenyl]-N-ethyl-N-methylmethanimidamide], 1; for `CCN(C)C=Nc1cc(Cl)c([S+]([O-])c2ccccc2Cl)cc1C` (stereo not drawn) [Example I-040, N'-[5-chloro-4-(2-chlorophenyl)sulfinyl-2-methylphenyl]-N-ethyl-N-methylmethanimidamide], 1.23.

Turning to `CCN(C)C=Nc1cc(Br)c([S+]([O-])c2ccccc2F)cc1C` (stereo not drawn) [Example I-043, N'-[5-bromo-4-(2-fluorophenyl)sulfinyl-2-methylphenyl]-N-ethyl-N-methylmethanimidamide], the chromatographic logP (reversed phase HPLC columns) was found to be 1.1.

In turn, `CCN(C)C=Nc1cc(Cl)c(S(=O)(=O)c2ccccc2)cc1C` [Example I-048, N'-[4-(benzenesulfonyl)-5-chloro-2-methylphenyl]-N-ethyl-N-methylmethanimidamide] yielded a chromatographic logP (reversed phase HPLC columns) of 1.31. On the same count and under the same terms, for `CCN(C)C=Nc1cc(C)c(S(=O)(=O)c2ccccc2C#N)cc1C` [Example I-049, N'-[4-(2-cyanophenyl)sulfonyl-2,5-dimethylphenyl]-N-ethyl-N-methylmethanimidamide] the value was 1; for `CCN(C)C=Nc1cc(Cl)c([S+]([O-])c2ccccc2)cc1C` (stereo not drawn) [Example I-050, N'-[4-(benzenesulfinyl)-5-chloro-2-methylphenyl]-N-ethyl-N-methylmethanimidamide], 0.97; for `CCN(C)C=Nc1cc(Cl)c([S+]([O-])c2ccccc2C#N)cc1C` (stereo not drawn) [Example I-051, N'-[5-chloro-4-(2-cyanophenyl)sulfinyl-2-methylphenyl]-N-ethyl-N-methylmethanimidamide], 0.87.

In the case of `CCN(C)C=Nc1cc(Cl)c(S(=O)(=O)c2ccccc2C#N)cc1C` [Example I-053, N'-[5-chloro-4-(2-cyanophenyl)sulfonyl-2-methylphenyl]-N-ethyl-N-methylmethanimidamide], the chromatographic logP (reversed phase HPLC columns) came to 1.31.

In turn, `CCN(C)C=Nc1cc(C#N)c(S(=O)(=O)c2ccccc2)cc1C` [Example I-055, N'-[4-(benzenesulfonyl)-5-cyano-2-methylphenyl]-N-ethyl-N-methylmethanimidamide] had a chromatographic logP (reversed phase HPLC columns) of 1.53. Still for that read-out and setting: for `CCN(C)C=Nc1cc(C#N)c([S+]([O-])c2ccccc2)cc1C` (stereo not drawn) [Example I-056, N'-[4-(benzenesulfinyl)-5-cyano-2-methylphenyl]-N-ethyl-N-methylmethanimidamide] the value was 0.87.

With `CCN(C)C=Nc1cc(C#N)c([S+]([O-])c2ccccc2C)cc1C` (stereo not drawn) [Example I-057, N'-[5-cyano-2-methyl-4-(2-methylphenyl)sulfinylphenyl]-N-ethyl-N-methylmethanimidamide], the chromatographic logP (reversed phase HPLC columns) worked out at 1.28. On the same count and under the same terms, then `CCN(C)C=Nc1cc(C#N)c(S(=O)(=O)c2ccccc2C)cc1C` [Example I-059, N'-[5-cyano-2-methyl-4-(2-methylphenyl)sulfonylphenyl]-N-ethyl-N-methylmethanimidamide], with 1.8; and `CCN(C)C=Nc1cc(C#N)c([S+]([O-])c2ccccc2Cl)cc1C` (stereo not drawn) [Example I-061, N'-[4-(2-chlorophenyl)sulfinyl-5-cyano-2-methylphenyl]-N-ethyl-N-methylmethanimidamide], with 1.27; and `CCN(C)C=Nc1cc(C#N)c(S(=O)(=O)c2ccccc2Cl)cc1C` [Example I-062, N'-[4-(2-chlorophenyl)sulfonyl-5-cyano-2-methylphenyl]-N-ethyl-N-methylmethanimidamide], with 1.84.

(Values after patent publication EP3915971A1, “PHENYL-S(O)N-PHENYLAMIDINES AND THE USE THEREOF AS FUNGICIDES” (Bayer Aktiengesellschaft, priority 2020, dated 2021).)
